# Key:
# Assay type in all cases: in vivo, mouse
# NOTCH1 = NOTCH1 protein level in brain, capillary-based immunoassay; conditions: aged C57 female mice; 10 mg/kg, IP, 7 days
# Protocol: NOTCH1 protein level in cortex, FIG. 13A, and hippocampus, FIG. 13B, was decreased in aged 3xTg-AD female mice v. male counterparts. Treatment with specific PRMT4 specific inhibitor (TP-064, 30 mg/kg, 7 days, IP) or AAV knockdown of PRMT4 enhanced NOTCH1 protein level in cortex, […], and hippocampus, […], in aged 3xTg-AD female mice. Relative NOTCH1 protein (˜110 kDa) level was measured by capillary-based immunoassay and normalized to total protein. * p<0.05 v. control male mice evaluated by unpaired t-test in FIGS. 13A and 13B. * p<0.05 compared to C57, #p<0.05 compared to 3xTg-AD+TP-064, $p<0.05 compared to 3xTg-AD+AAV, evaluated by one-way ANOVA with Tukey's post-hoc analyses in FIGS. 13C and 13D.
# (§1) FIGS. 16A-16G show NOTCH1 inhibition (via crenigacestat) decreased ZO-1 and occluding and AAV knockdown of PRMT4 enhanced ZO-1 and occludin. […] C57 female mice. FIGS. 16B and 16C show crenigacestat (10 mg/kg, IP, 7 days) reduced NOTCH1 (110 kDa) protein level in the cortex and hippocampus of aged C57 female mice. AAV knockdown of PRMT4 increased NOTCH1 protein level. FIGS. 16D-16G show ZO-1 (220 kDa), and occludin (60 kDa) tight junctional proteins were decreased in the cortex and hippocampus in presence of NOTCH1 inhibitor in C57. PRMT4-AAV increased the expression of ZO-1 and occludin in aged 3xTg-AD female mice. Protein level was measured by capillary-based immunoassay and normalized to total protein. * p<0.05 compared to C57, #p<0.05 compared to 3xTg-AD, $p<0.05 compared to 3xTg-AD+AAV as evaluated by one-way ANOVA with Tukey's post-hoc analyses.
# Capillary-phoresis immunoassay via ProteinSimple®: Quantification of all protein targets was achieved using Simple Western analysis in a Jess™ apparatus per the manufacturer's protocol (ProteinSimple, Bio-techne, Minneapolis, MN). […] Following homogenization and centrifugation (10,000×g, 5 min, 4° C.), protein concentration was determined in tissue protein supernatant samples using DC Protein Assay (Cat. No. 5000112, Bio-Rad Laboratories, Hercules, California) according to manufacturer instructions. […] Antibody diluent (ProteinSimple, Bio-techne, Minneapolis, MN) was used for all antibody dilutions as follows: PRMT4 (1:50, RRID: AB_2068436), PRMT6 (1:100, Cell Signaling Technology cat. 14641), eNOS (1:200, RRID: AB_10850618), nNOS (1:100, RRID: AB_2152488), iNOS (1:100, RRID: AB_10000625), DDAH2 (1:50, RRID: AB_2640442) Antibodies were detected using HRP-conjugated secondary anti-rabbit, and -mouse. Relative protein levels were calculated by measuring the area under the peak of a chemiluminescent chromatogram and normalized to total capillary chemiluminescence for a given sample. […]
# ZO-1 = ZO-1 tight junction protein level in brain, capillary-based immunoassay; conditions: C57 mice; 10 mg/kg, IP, 7 days
# Protocol: as §1
# (§2) Capillary-phoresis immunoassay via ProteinSimple®: Quantification of all protein targets was achieved using Simple Western analysis in a Jess™ apparatus per the manufacturer's protocol (ProteinSimple, Bio-techne, Minneapolis, MN). […] Following homogenization and centrifugation (10,000×g, 5 min, 4° C.), protein concentration was determined in tissue protein supernatant samples using DC Protein Assay (Cat. No. 5000112, Bio-Rad Laboratories, Hercules, California) according to manufacturer instructions. […]
# C57 mice = experiment: Neurovascular coupling: microvessel diameter, two-photon laser scanning microscopy, C57 mice; conditions: 10 mg/kg, 7 days, IP
# occludin = experiment: Occludin tight junction protein level in brain, capillary-based immunoassay; conditions: C57 mice; 10 mg/kg, IP, 7 days
# Protocol: as §1, §2
compound,measurement,setting,value
C[C@H](NC(=O)CCC(F)(F)F)C(=O)N[C@@H]1C(=O)N(CCO)c2ncccc2-c2ccccc21 [Crenigacestat],NOTCH1 protein level in cortex,NOTCH1,reduced
same,NOTCH1 protein level in hippocampus,NOTCH1,reduced
same,ZO-1 protein level in cortex,ZO-1,decreased
same,ZO-1 protein level in hippocampus,ZO-1,decreased
same,microvessel diameter,C57 mice,decrease
same,occludin protein level in cortex,occludin,decreased
same,occludin protein level in hippocampus,occludin,decreased

# Source: patent US20240238268A1, “TREATMENTS AND METHODS FOR TREATING ALZHEIMER'S DISEASE” (Board of Supervisors of Louisiana State University and …, priority 2021, published 2024)
